Converted amounts (≈) assume the structure as drawn.
Legend:
Format in all cases: cell-based
Aspergillus fumigatus [1] = assay: In vitro antifungal activity, Sabouraud's and Dextrose broth
From the text: (§1) In those tables, a dash or "N.T." means the material was not tested.

[2] = tested on: Trichophyton mentagrophytes; assay: as above
From the text: as §1

Candida albicans [3] = assay: as above
From the text: as §1

[4] = tested on: LML "Low Malignancy Line" fibroblast; assay: Disk diffusion soft agar colony formation assay; settings: 200 zone units = 6 MM
Description: (§2) The method of performing the disk diffusion soft agar colony […] assay is described in Chapter 3 of Cytotoxic Anticancer Drugs: Models and Concepts for Drug Discovery and Development (Frederick A. Valeriote, et al., eds., 1990). In addition to the procedure taught in this reference, one mL ethanol was added to each dry factor in a vial, and the desired concentration of solution was placed on a paper disk. The disk was dried and then placed on soft agar plates as described in the reference.
LML = "Low Malignancy Line" fibroblast
(§3) ^2 Measurement in zone units; 200 zone units = 6 MM

[5] = tested on: P03 murine pancreatic solid tumor cell line; assay: Disk diffusion soft agar colony formation assay; settings: 200 zone units = 6 MM
Description: as §2
P03 = murine pancreatic solid tumor cell line
as §3

[6] = tested on: L1210 murine leukemia cell line; assay: Disk diffusion soft agar colony formation assay; settings: 200 zone units = 6 MM
Description: as §2
L1210 = murine leukemia cell line
as §3

[7] = tested on: H8 human colon solid tumor cell line; assay: Disk diffusion soft agar colony formation assay; settings: 200 zone units = 6 MM
Description: as §2
H8 = human colon solid tumor cell line
as §3

[8] = tested on: C38 murine colon solid tumor cell line; assay: Disk diffusion soft agar colony formation assay; settings: 200 zone units = 6 MM
Description: as §2
C38 = murine colon solid tumor cell line
as §3

[9] = tested on: CX-1 human colon solid tumor cell line; assay: Disk diffusion soft agar colony formation assay; settings: factor line, no dose given, 200 zone units = 6 MM
Description: as §2
CX1 = human colon solid tumor cell line
as §3

[10] = tested on: Trichophyton mentagrophytes; assay: In vitro antifungal activity, RPMI and 10% fetal calf serum broth
From the text: as §1

Candida albicans [11] = assay: as above
From the text: as §1

Aspergillus fumigatus [12] = assay: In vitro antifungal activity, Antibiotic 3 broth (Difco); settings: Table 7
From the text: as §1

[13] = tested on: Trichophyton mentagrophytes; assay: as above
From the text: as §1

Candida albicans [14] = assay: as above; settings: Table 7
From the text: as §1

[15] = tested on: Mam17 murine mammary solid tumor cell line; assay: Disk diffusion soft agar colony formation assay; settings: 200 zone units = 6 MM
Description: as §2
Mam17 = murine mammary solid tumor cell line
as §3

Aspergillus fumigatus [16] = assay: In vitro antifungal activity, RPMI and 10% fetal calf serum broth; settings: Table 5
From the text: as §1

[17] = unlabelled line below the (45 ug) line
[18] = Table 1, RPMI and 10% Fetal Calf Serum Broth
[19] = Table 3, RPMI & 10% Fetal Calf Serum Broth
[20] = unlabelled line below the (80 ug) line
[21] = Table 5, RPMI and 10% Fetal Calf Serum Broth

Compound | Measurement in zone units ([6]; factor line, no dose given) | Measurement in zone units ([8]; factor line, no dose given) [zone units] | MIC (Aspergillus fumigatus [1]; Table 4) [µg/mL] | MIC ([2]; Table 4) [µg/mL] | MIC (Candida albicans [3]; Table 4) [µg/mL] | MIC [10, 19] [µg/mL] | MIC (Candida albicans [11]; [19]) [µg/mL] | MIC (Aspergillus fumigatus [1]; Table 6) [µg/mL] | MIC (Candida albicans [3]; Table 6) [µg/mL] | Measurement in zone units ([4]; 20 ug per disk) | Measurement in zone units ([4]; 80 ug per disk) | Measurement in zone units ([6]; 20 ug per disk) | Measurement in zone units ([6]; 80 ug per disk) | MIC (Aspergillus fumigatus [12]) [µg/mL] | MIC (Candida albicans [14]) [µg/mL] | Measurement in zone units ([7]; 20 ug per disk) | Measurement in zone units ([8]; 20 ug per disk) | MIC (Aspergillus fumigatus [16]) [µg/mL] | MIC (Candida albicans [11]; [21]) [µg/mL] | also measured
[C-]#[N+]C12C3OC3C(C)(C)C3=Nc4cccc5c4C3(O)C1(O)C(CC(Cl)C2(C)C=C)C5(C)C (stereo not shown) [A89271 A] | 0-400 zone units | 650 | – | – | – | – | – | – | – | – | – | – | – | – | – | – | – | – | – | MIC (Aspergillus fumigatus [1]; Table 2): 80 µg/mL (≈ 177 µM); MIC ([2]; Table 2): 10 µg/mL (≈ 22.1 µM); MIC (Candida albicans [3]; Table 2): 2.5 µg/mL (≈ 5.52 µM); Measurement in zone units ([4]; 11 ug per disk): 0-300 zone units; Measurement in zone units [4, 17]: 0-300 zone units; Measurement in zone units ([5]; 9 ug per disk): 500 zone units; Measurement in zone units ([5]; factor line, no dose given): 650 zone units; Measurement in zone units ([6]; 9 ug per disk): 200-250 zone units; Measurement in zone units ([6]; 11 ug per disk): 250-320 zone units; Measurement in zone units ([7]; 9 ug per disk): 200-330 zone units; Measurement in zone units ([7]; 11 ug per disk): 250-420 zone units; Measurement in zone units [7, 17]: 300-470 zone units; Measurement in zone units ([8]; 9 ug per disk): 480 zone units; Measurement in zone units ([8]; 11 ug per disk): 610 zone units; Measurement in zone units ([8]; 45 ug per disk): 670 zone units; Measurement in zone units [8, 17]: 750 zone units; Measurement in zone units [9]: 600-650 zone units; MIC [10, 18]: > 20 µg/mL; MIC (Candida albicans [11]; [18]): 2.5 µg/mL (≈ 5.52 µM)
[C-]#[N+]C1C(C)(C=C)C(Cl)CC2C(C)(C)c3cccc4[nH]c(C(C)(C)C=C)c(c34)C21O (stereo not shown) [A89271 C] | – | – | > 80 | > 80 | 2.5 (≈ 5.91 µM) | 0.625 (≈ 1.48 µM) | 1.25 (≈ 2.96 µM) | – | – | – | – | – | – | – | – | – | – | – | – | –
[C-]#[N+]C12C(O)C(O)C(C)(C)c3[nH]c4cccc5c4c3C1(O)C(CC(Cl)C2(C)C=C)C5(C)C (stereo not shown) [A89271 D] | – | – | > 80 | > 80 | 1.25 (≈ 2.75 µM) | 0.625 (≈ 1.37 µM) | 1.25 (≈ 2.75 µM) | – | – | – | – | – | – | – | – | – | – | – | – | –
[C-]#[N+]C1C(C)(C=C)CCC2C(C)(C)c3cccc4[nH]c(C(C)(C)C=C)c(c34)C12O (stereo not shown) [A89271 E] | 280 zone units | 300 | – | – | – | – | – | > 80 | 5 (≈ 12.9 µM) | 80 zone units | 100-180 zone units | 100-200 zone units | 250-300 zone units | > 80 | 5.0 (≈ 12.9 µM) | 100-180 zone units | 300-360 zone units | > 80 | 2.5 (≈ 6.43 µM) | MIC ([2]; Table 6): 2.5 µg/mL (≈ 6.43 µM); Measurement in zone units ([5]; 80 ug per disk): 440-500 zone units; Measurement in zone units [5, 20]: 460 zone units; Measurement in zone units [6, 20]: 200-220 zone units; MIC ([13]; Table 7): 5.0 µg/mL (≈ 12.9 µM); Measurement in zone units ([7]; 80 ug per disk): 220-240 zone units; Measurement in zone units [8, 20]: 480-500 zone units; Measurement in zone units ([15]; factor line, no dose given): 350 zone units; MIC [10, 21]: 2.5 µg/mL (≈ 6.43 µM)
[C-]#[N+]C12C3OC3C(C)(C)c3[nH]c4cccc5c4c3C1(O)C(CC(Cl)C2(C)C=C)C5(C)C (stereo not shown) [A89271 F] | 200-250 zone units | 500 | > 80 | > 80 | 1.25 (≈ 2.86 µM) | 1.25 (≈ 2.86 µM) | 1.25 (≈ 2.86 µM) | – | – | 0-80 zone units | 0-120 zone units | 300-350 zone units | 350-460 zone units | – | – | 200-350 zone units | 590 zone units | – | – | Measurement in zone units ([4]; 8 ug per disk): 0-400 zone units; Measurement in zone units ([5]; 16 ug per disk): 440 zone units; Measurement in zone units ([5]; factor line, no dose given): 500 zone units; Measurement in zone units ([6]; 8 ug per disk): 250-280 zone units; Measurement in zone units ([6]; 16 ug per disk): 0-220 zone units; Measurement in zone units ([7]; 16 ug per disk): 200-330 zone units; Measurement in zone units ([7]; 80 ug per disk): 200-400 zone units; Measurement in zone units ([7]; factor line, no dose given): 200-300 zone units; Measurement in zone units ([8]; 16 ug per disk): 460 zone units; Measurement in zone units ([8]; 80 ug per disk): 550-580 zone units; Measurement in zone units ([15]; 8 ug per disk): 250 zone units
[C-]#[N+]C12C3OC3C(C)(C)c3[nH]c4cccc5c4c3C1(O)C(CCC2(C)C=C)C5(C)C (stereo not shown) [A89271 I] | 260 zone units | – | – | – | – | – | – | > 80 | 2.5 (≈ 6.21 µM) | 0-180 zone units | 100-200 zone units | 100-250 zone units | 200-220 zone units | > 80 | 1.25 (≈ 3.11 µM) | 100-180 zone units | 680 zone units | > 80 | 1.25 (≈ 3.11 µM) | MIC ([2]; Table 6): 2.5 µg/mL (≈ 6.21 µM); Measurement in zone units ([4]; factor line, no dose given): 0-200 zone units; Measurement in zone units ([5]; 16 ug per disk): 420 zone units; Measurement in zone units ([5]; 80 ug per disk): 490 zone units; Measurement in zone units ([6]; 16 ug per disk): 110 zone units; MIC ([13]; Table 7): 5.0 µg/mL (≈ 12.4 µM); Measurement in zone units ([7]; 16 ug per disk): 120 zone units; Measurement in zone units ([8]; 16 ug per disk): 390 zone units; Measurement in zone units ([8]; 80 ug per disk): 500 zone units; Measurement in zone units ([15]; factor line, no dose given): 250 zone units; MIC [10, 21]: 2.5 µg/mL (≈ 6.21 µM)
C[C@@H]1[C@H](O)[C@@H](C)/C=C/C=C/C=C/C=C/C=C/C=C/C=C/[C@H](O[C@@H]2O[C@H](C)[C@@H](O)[C@H](N)[C@@H]2O)C[C@@H]2O[C@](O)(C[C@@H](O)C[C@@H](O)[C@H](O)CC[C@@H](O)C[C@@H](O)CC(=O)O[C@H]1C)C[C@H](O)[C@H]2C(=O)O [Amphotericin B, reference compound] | – | – | 1.25 (≈ 1.35 µM) | – | 0.312 (≈ 0.338 µM) | – | 0.156 (≈ 0.169 µM) | 5.0 (≈ 5.41 µM) | 0.312 (≈ 0.338 µM) | – | – | – | – | 0.039 (≈ 0.0422 µM) | 0.02 (≈ 0.0216 µM) | – | – | 1.25 (≈ 1.35 µM) | 0.625 (≈ 0.676 µM) | MIC (Aspergillus fumigatus [1]; Table 2): 1.25 µg/mL (≈ 1.35 µM); MIC (Candida albicans [3]; Table 2): 0.625 µg/mL (≈ 0.676 µM); MIC (Candida albicans [11]; [18]): 0.156 µg/mL (≈ 0.169 µM)
Cc1cccc(N(C)C(=S)Oc2ccc3ccccc3c2)c1 [Tolnaftate, reference compound] | – | – | – | – | – | – | – | – | – | – | – | – | – | – | – | – | – | – | – | MIC ([2]; Table 2, read-out: MIC): 0.039 µg/mL (≈ 0.127 µM); MIC ([2]; Table 4, read-out: MIC): < 0.02 µg/mL; MIC ([2]; Table 6, read-out: MIC): 0.02 µg/mL (≈ 0.0651 µM); MIC ([13]; Table 7, read-out: MIC): 0.02 µg/mL (≈ 0.0651 µM); MIC ([10]; Table 1, RPMI and 10% Fetal Calf Serum Broth, read-out: MIC): 0.039 µg/mL (≈ 0.127 µM); MIC ([10]; Table 3, RPMI & 10% Fetal Calf Serum Broth, read-out: MIC): < 0.02 µg/mL; MIC ([10]; Table 5, RPMI and 10% Fetal Calf Serum Broth, read-out: MIC): 0.02 µg/mL (≈ 0.0651 µM)

From patent US5457119A, “A89271 factors and processes for their production” (priority 1994, dated 1995)
